This experiment concerns the target T1, Tyrosine-protein kinase transforming protein Abl (Abelson murine leukemia virus, UniProt P00521).
T1 sequence (P00521 whole entry): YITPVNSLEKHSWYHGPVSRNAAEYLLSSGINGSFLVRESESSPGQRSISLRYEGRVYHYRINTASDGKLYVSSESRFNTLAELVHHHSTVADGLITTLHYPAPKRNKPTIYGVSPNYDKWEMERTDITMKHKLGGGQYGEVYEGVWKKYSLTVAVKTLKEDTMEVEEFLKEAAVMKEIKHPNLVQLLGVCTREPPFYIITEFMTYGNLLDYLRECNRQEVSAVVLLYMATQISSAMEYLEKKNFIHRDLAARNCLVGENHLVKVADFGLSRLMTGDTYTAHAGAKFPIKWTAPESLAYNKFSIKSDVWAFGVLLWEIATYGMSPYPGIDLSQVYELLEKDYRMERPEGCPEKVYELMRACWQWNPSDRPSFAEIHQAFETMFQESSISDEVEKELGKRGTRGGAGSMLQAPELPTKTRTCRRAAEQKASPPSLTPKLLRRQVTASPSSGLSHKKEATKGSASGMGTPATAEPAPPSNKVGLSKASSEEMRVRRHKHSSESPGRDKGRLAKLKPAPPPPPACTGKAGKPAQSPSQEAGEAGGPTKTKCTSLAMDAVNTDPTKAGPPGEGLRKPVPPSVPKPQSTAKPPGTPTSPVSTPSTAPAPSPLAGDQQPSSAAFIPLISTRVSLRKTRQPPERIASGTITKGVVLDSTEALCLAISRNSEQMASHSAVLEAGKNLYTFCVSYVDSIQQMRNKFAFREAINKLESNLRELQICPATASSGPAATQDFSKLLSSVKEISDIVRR
Briefly: Inhibition of p60v-abl tyrosine kinase from Abelson murine leukemia virus.
Regarding `Cc1ccc(NP(=O)(O)OP(=O)(O)OP(=O)(O)OP(=O)(O)OC[C@H]2O[C@@H](n3cnc4c(N)ncnc43)[C@H](O)[C@@H]2O)cc1`, it took 16 µM to reach half-maximal inhibition (IC50). In other words, the double-digit micromolar range.
`CC(=O)NC(Cc1ccc(NP(=O)(O)OP(=O)(O)OP(=O)(O)OP(=O)(O)OC[C@H]2O[C@@H](n3cnc4c(N)ncnc43)[C@H](O)[C@@H]2O)cc1)C(N)=O` (stereo partly drawn) gave an IC50 of 110 µM. This IC50 lies about 6.9-fold higher than the previous one.
In the case of `Nc1ncnc2c1ncn2[C@@H]1O[C@H](COP(=O)(O)OP(=O)(O)OP(=O)(O)Oc2ccccc2)[C@@H](O)[C@H]1O`, half-maximal inhibition (IC50) required 13 µM.
On to `Cc1ccc(NP(=O)(O)OP(=O)(O)OP(=O)(O)OC[C@H]2O[C@@H](n3cnc4c(N)ncnc43)[C@H](O)[C@@H]2O)cc1`, for which the IC50 was 150 µM. This IC50 lies about 12-fold higher than the previous one.
For `CC(=O)NC(Cc1ccc(NP(=O)(O)OP(=O)(O)OP(=O)(O)OC[C@H]2O[C@@H](n3cnc4c(N)ncnc43)[C@H](O)[C@@H]2O)cc1)C(N)=O` (stereo partly drawn) the value was 44 µM; for `Nc1ncnc2c1ncn2[C@@H]1O[C@H](COP(=O)(O)OP(=O)(O)OP(=O)(O)OP(=O)(O)Oc2ccccc2)[C@@H](O)[C@H]1O`, 41 µM.
For `CC(=O)NCCNP(=O)(O)OP(=O)(O)OP(=O)(O)OC[C@H]1O[C@@H](n2cnc3c(N)ncnc32)[C@H](O)[C@@H]1O`, the IC50 was determined as 25 µM. Against the preceding compound, the IC50 is about 1.6-fold lower.
`COc1ccc(CNP(=O)(O)OP(=O)(O)OP(=O)(O)OC[C@H]2OC(n3cnc4c(N)ncnc43)[C@H](O)[C@@H]2O)cc1` (stereo partly drawn): the concentration for half-maximal inhibition (IC50) was determined as 90 µM.

One may read the IC50 as the concentration needed to halve the response being measured. Low readings indicate inhibition by little substance, high ones a need for much substance.

The values are drawn from ChEMBL document CHEMBL1124202, “Synthesis and evaluation of multisubstrate inhibitors of an oncogene-encoded tyrosine-specific protein kinase. 2” (J Med Chem, 1988).
